Where two headings read alike, the source gives them in different places.
Legend:
[1] = tested on: Leishmania tarentolae promastigotes (LtP); assay: Viability of LtP treated with EO main components (resazurin); assay type: cell-based
Procedure: LtP (200 μl, 2 × 10^6 parasites/ml) in YEM/phosphate‐buffered saline (PBS; 1:1 vol/vol, including antibiotics and 6 μM hemin) were distributed in 96‐well plates (nontreated plates). Compound stocks (in DMSO, max. 2% final concentration) were added, and five 1:3 serial dilutions were performed. Control rows with YEM/PBS (no activity) and with untreated LtP (vehicle, DMSO; 100% activity) were loaded, and the plate was incubated at 26 °C for 48 hr. Then resazurin (50 μl in PBS) was added (20 μM final concentration), and after 4 hr of incubation at 26 °C, the fluorescence of […] was measured at 560 nm excitation and 590 nm emission using a plate reader (PerkinElmer Enspire, Germany). Each compound was tested in triplicate.

[2] = biological target: T1, succinate:ubiquinone oxidoreductase (complex II), BH‐SMP (Bos taurus, UniProt P31039+P35720+Q3T189+Q95123); assay: Succinate:ubiquinone oxidoreductase (complex II) activity in BH‐SMP, DCPIP; assay type: biochemical, bovine
T1 construct: from tissue; host or cells: bovine heart submitochondrial particles (BH-SMP)
T1 sequence (P31039 45-665 limits assumed): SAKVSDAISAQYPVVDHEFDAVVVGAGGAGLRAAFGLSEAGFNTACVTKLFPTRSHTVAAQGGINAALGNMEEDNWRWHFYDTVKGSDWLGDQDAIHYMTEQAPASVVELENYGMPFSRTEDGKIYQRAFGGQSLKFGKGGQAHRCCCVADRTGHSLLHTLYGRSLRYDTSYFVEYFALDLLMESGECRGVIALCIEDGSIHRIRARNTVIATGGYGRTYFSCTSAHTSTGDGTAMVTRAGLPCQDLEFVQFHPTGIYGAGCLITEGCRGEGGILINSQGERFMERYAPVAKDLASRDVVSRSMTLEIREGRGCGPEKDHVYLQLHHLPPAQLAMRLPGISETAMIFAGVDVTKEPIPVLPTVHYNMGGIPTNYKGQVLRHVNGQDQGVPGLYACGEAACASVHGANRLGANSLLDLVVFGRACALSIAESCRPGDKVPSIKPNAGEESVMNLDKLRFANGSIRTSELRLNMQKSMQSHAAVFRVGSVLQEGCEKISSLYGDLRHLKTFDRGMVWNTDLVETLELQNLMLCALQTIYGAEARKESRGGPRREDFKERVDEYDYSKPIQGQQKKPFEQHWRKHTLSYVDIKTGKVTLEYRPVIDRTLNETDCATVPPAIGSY
T1 sequence (Q3T189 29-280): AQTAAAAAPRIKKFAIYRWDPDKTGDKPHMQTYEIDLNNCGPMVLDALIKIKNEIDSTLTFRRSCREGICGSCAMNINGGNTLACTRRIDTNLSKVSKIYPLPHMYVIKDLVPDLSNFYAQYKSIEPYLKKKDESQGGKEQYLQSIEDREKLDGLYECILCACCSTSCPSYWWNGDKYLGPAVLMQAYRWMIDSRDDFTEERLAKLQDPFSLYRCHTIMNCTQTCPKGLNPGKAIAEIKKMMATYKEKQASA
T1 sequence (P35720 30-169): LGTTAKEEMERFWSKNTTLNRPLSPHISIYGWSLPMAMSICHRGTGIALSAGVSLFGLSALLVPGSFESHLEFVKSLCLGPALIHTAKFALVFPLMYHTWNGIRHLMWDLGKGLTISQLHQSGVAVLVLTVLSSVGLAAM
T1 sequence (Q95123 56-158): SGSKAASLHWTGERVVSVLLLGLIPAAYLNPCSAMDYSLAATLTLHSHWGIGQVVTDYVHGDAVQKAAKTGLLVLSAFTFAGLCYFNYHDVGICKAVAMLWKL
Procedure: NADH:ubiquinone oxidoreductase (complex I) and succinate:ubiquinone oxidoreductase (complex II) activities were determined in 96 well‐plates using DCPIP as the electron acceptor. In each well, 200 μl of premix containing buffer (250 mM sucrose, 20 mM triethanolamine, and 1 mM EDTA, pH 7.4), DCPIP (60 μM), BSA (3.5 mg/ml for complex I and 1 mg/ml for complex II), idebenone (50 μM), and LtP‐Mit (complex I 0.17 μg/ml protein and complex II: 51 μg/ml protein) or BH‐SMP (complexes I and II: 8 μg/ml protein) were added. In addition, in the first wells, 97 μl of premix and 3 μl of EO compounds were added. Then six serial 1:3 dilutions were carried out transferring 100 μl in each step. The reaction was started by adding 50 μl of start‐mix per well, giving final concentrations of KCN (1 mM), for complex I:NADH (300 μM) or complex II:succinate (4 mM). After start of the reaction, images of the plates were recorded with a Canon EOS 300D camera (PLReader software, red–green channel) each 10 min for LtP‐Mit and 3 min for BH‐SMP (20 absorbance measurements). For each EO compound, percentage of inhibition was obtained with respect to controls (set to 100%) treated with maximum volume of vehicle (DMSO) introduced by test compound stocks.

[3] = biological target: ubiquinol:cytochrome c oxidoreductase (complex III), LtP‐Mit (Leishmania tarentolae, UniProt A0A640KA58+A0A640KYQ2+P14548); assay: dUQH2:cyt c3+ oxidoreductase (complex III) activity in LtP‐Mit; assay type: biochemical
Sequence of ubiquinol:cytochrome c oxidoreductase (complex III), LtP‐Mit (P14548 whole entry): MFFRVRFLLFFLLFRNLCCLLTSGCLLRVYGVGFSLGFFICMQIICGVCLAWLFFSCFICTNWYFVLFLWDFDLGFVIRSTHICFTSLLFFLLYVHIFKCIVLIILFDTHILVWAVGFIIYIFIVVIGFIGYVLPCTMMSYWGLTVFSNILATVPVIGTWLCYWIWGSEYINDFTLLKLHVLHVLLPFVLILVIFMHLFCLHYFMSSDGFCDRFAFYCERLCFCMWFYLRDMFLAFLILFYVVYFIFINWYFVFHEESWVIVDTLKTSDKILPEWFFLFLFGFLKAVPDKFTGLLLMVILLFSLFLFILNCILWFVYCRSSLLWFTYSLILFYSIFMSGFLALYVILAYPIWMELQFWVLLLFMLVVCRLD
Sequence of ubiquinol:cytochrome c oxidoreductase (complex III), LtP‐Mit (A0A640KA58 entry or part of it): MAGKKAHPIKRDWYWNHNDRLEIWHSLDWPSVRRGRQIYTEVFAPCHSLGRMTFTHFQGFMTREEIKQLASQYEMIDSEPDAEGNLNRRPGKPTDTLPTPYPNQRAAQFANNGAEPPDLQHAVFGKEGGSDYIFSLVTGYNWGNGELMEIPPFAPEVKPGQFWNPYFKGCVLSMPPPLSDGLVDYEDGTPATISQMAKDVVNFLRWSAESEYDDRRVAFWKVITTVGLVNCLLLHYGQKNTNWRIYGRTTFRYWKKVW
Sequence of ubiquinol:cytochrome c oxidoreductase (complex III), LtP‐Mit (A0A640KYQ2 entry or part of it): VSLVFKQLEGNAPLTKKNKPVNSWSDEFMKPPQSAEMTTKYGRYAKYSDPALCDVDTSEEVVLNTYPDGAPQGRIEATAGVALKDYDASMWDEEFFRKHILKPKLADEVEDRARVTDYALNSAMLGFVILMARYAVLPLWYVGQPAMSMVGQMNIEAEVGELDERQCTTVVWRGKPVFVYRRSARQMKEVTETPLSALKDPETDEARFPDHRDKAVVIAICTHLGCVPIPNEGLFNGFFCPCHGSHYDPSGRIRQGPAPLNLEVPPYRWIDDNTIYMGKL
Procedure: (§1) To measure the ubiquinol:cyt c ^3+ oxidoreductase (complex III) activity, the reduction of 100 μM cyt c ^3+ at 550 nm using 540 nm as reference was monitored in the presence of the artificial substrate decylubiquinol (dUQH2, 75 μM), which was prepared from dUQ by reduction (Müllebner et al., 2010). The dUQH2:cyt c ^3+ oxidoreductase activities of 40 μg protein/ml of LtP‐Mit or 3.2 μg protein/ml of BH‐SMP were measured in 1 ml of buffer containing 250 mM sucrose, 50 mM KH2PO4, 0.2 mM EDTA (pH 7.2), 2 mM KCN, and 4 mM NaN3. Respective EO compounds were added 50 s after starting the time scan, and the reaction was started after 100 s with dUQH2 and was monitored for additional 150 s. The activity of noninhibited dUQH2:cyt c ^3+ oxidoreductase activity was measured in the presence of the vehicle for the respective inhibitor (DMSO). All inhibitor concentrations were tested in triplicate. The reduction rates for cyt c ^3+ were calculated from the time trace of the absorption difference at 550 − 540 nm (ε550–540 nm = 19 mmol^−1 L cm^−1). Reduction rates in the presence of DMSO (maximum amount that was introduced by test compound stocks) were set to 100%, and the remaining activities in the presence of EO compounds were expressed in %. Three replicates were measured for each concentration.

[4] = biological target: T2, cytochrome bc 1 complex purified from Saccharomyces cerevisiae (Saccharomyces cerevisiae, UniProt P00163+P07143+P08067); assay: dUQH2:cyt c3+ oxidoreductase activity of isolated ScY‐bc 1; assay type: biochemical
T2 construct: endogenous in cells; host or cells: Native complex purified in house from yeast submitochondrial particles (Triton X-100, hydroxyapatite)
Procedure: (§2) Cytochrome bc 1 complex was obtained from ScY‐SMP and BH‐SMP following published methodology (Geier, Schägger, Brandt, Colson, & von Jagow, 1992) with minor modifications as described below. SMP were resuspended in 1.1% Triton X‐100 and […] phenylmethylsulfonyl fluoride, pH 7.2, and centrifuged for 1 hr at 100,000 g. The bc 1 complex in the sediment was solubilized with 2.2% Triton X‐100, 600 mM NaCl, 10 mM KH2PO4, and 10 mM EDTA, pH 7.2. After centrifugation at 100,000 g for 1 hr, the supernatant was mixed with 50 ml of hydroxyapatite, equilibrated with 0.5% Triton X‐100, 250 mM NaCl, and 100 mM NaHPO4, pH 7.2. After washing the hydroxyapatite with 50 ml of equilibration buffer ([…], 100 mM NaHPO4, and 250 mM NaCl), the bc 1 complexes from ScY‐SMP and BH‐SMP (ScY‐bc 1 and BH‐bc 1, respectively) were eluted from hydroxyapatite with 250 mM KH2PO4 and 0.25% Triton X‐100, pH 7.2, and stored in liquid nitrogen.
as §1, with “Reduction rates in the presence of DMSO (maximum amount that was introduced by test compound stocks) were set to 100%, and the remaining activities in the presence of EO compounds were expressed in %.” left out, “concentration. […]” for “concentration.”

[5] = biological target: T3, cytochrome bc 1 complex purified from Bos taurus (Bos taurus, UniProt P00125+P00157+P13272); assay: dUQH2:cyt c3+ oxidoreductase activity of isolated BH‐bc 1; assay type: biochemical
T3 construct: from tissue; host or cells: Native complex purified in house from bovine heart submitochondrial particles (Triton X-100, hydroxyapatite)
Procedure: as §2
as §1, with “Reduction rates in the presence of DMSO (maximum amount that was introduced by test compound stocks) were set to 100%, and the remaining activities in the presence of EO compounds were expressed in %.” left out, “concentration. […]” for “concentration.”

[6] = tested on: Leishmania amazonensis promastigotes (LaP); design: method as in Monzote, Garcia, et al., 2014; settings: ref Monzote, Garcia, et al., 2014, cited from earlier work; for IC50: previous study, read-out: IC50 against LaP
[7] = 48 hr at 26 °C, resazurin, n = 3, read-out: IC50, viability of LtP
[8] = read-out: IC50 Complex II BH‐SMP
[9] = mean ± SD, three experiments, read-out: IC50 Complex III LtP‐Mit
[10] = immediate inhibition, five experiments, read-out: IC50 ± SD ScY‐bc 1
[11] = immediate inhibition, five experiments, read-out: IC50 ± SD BH‐bc 1

Row | SMILES | IC50 ([1]; 48 h, read-out: IC50, viability of LtP) | IC50 [2] | % of inhibition at highest concentration tested, Complex II BH‐SMP [2] | IC50 [3] | IC50 [4] | IC50 [5] | IC50 [6] | IC50 values for L. amazonensis in the presence of iron chelators ([6]; with iron chelators) | IC50 [1, 7] | IC50 [2, 8] | IC50 [3, 9] | IC50 [4, 10] | IC50 [5, 11]
1 | CC(C)C12C=CC(C)(CC1)OO2 (stereo not shown) [Asc, ascaridole] | 24.5 ± 3 µM | > 100 µM | 21.2% | 131 ± 3.5 µM | 675 ± 6 µM | 381 ± 9 µM | 0.6 ± 0.06 µM | strongly increased | – | – | – | – | –
2 | Cc1ccc(C(C)C)cc1O [Car, carvacrol] | – | – | 21.5% | – | – | – | 101 ± 30 µM | – | 11.6 ± 3.4 µM | > 100 µM | 150 ± 2.3 µM | 941 ± 41 µM | 421 ± 4 µM
3 | C=C1CC[C@H]2O[C@]2(C)CC[C@@H]2[C@@H]1CC2(C)C [Caryo, caryophyllene oxide] | – | – | 16.3% | – | – | – | 22.2 ± 10.4 µM | – | 36 ± 17.6 µM | > 100 µM | 54.8 ± 4 µM | 179 ± 1 µM | 197 ± 1 µM

From PMC6208284 (Phytotherapy Research, 2018)
